Data as given in ChEMBL document CHEMBL1201862, “PubChem BioAssay data set” (2004).
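Method: 48-hour compound exposure of cells in 96-well plates, five concentrations, linear interpolation of endpoints. GI50: concentration for 50% inhibition of growth.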 Calls of active or inactive are those of the source. Cut-off read from the data, not from the text of the source: active = GI50 up to about 1.1 µM and inactive = higher.

Experiments:
Assay in all cases: growth of human tumour cells (NCI), 48 h
Malme-3M = system: Malme-3M
HOP-62 = system: HOP-62
MDA-MB-231 = system: MDA-MB-231
SW-620 = system: SW-620
OVCAR-8 = system: OVCAR-8
MDA-N = system: MDA-N
COLO 205 = system: COLO 205
SK-MEL-28 = system: SK-MEL-28
NCI-H522 = system: NCI-H522
MCF7 = system: MCF7
ACHN = system: ACHN
UACC-257 = system: UACC-257
MDA-MB-435 = system: MDA-MB-435
CAKI-1 = system: CAKI-1
PC-3 = system: PC-3
DU-145 = system: DU-145
BT-549 = system: BT-549
KM12 = system: KM12
UACC-62 = system: UACC-62
SK-MEL-2 = system: SK-MEL-2

SMILES	GI50 (Malme-3M)	GI50 (HOP-62)	GI50 (MDA-MB-231)	GI50 (SW-620)	GI50 (OVCAR-8)	GI50 (MDA-N)	GI50 (COLO 205)	GI50 (SK-MEL-28)	GI50 (NCI-H522)	GI50 (MCF7)	GI50 (ACHN)	GI50 (UACC-257)	GI50 (MDA-MB-435)	GI50 (CAKI-1)	GI50 (PC-3)	GI50 (DU-145)	GI50 (BT-549)	GI50 (KM12)	GI50 (UACC-62)	GI50 (SK-MEL-2)
CC(C)(Br)C(Br)CCC1(C2CO2)CO1 (configuration not stated)	> 5 µM (inactive)	> 5 µM (inactive)	> 5 µM (inactive)	> 5 µM (inactive)	> 5 µM (inactive)	> 5 µM (inactive)	> 5 µM (inactive)	> 5 µM (inactive)	> 5 µM (inactive)	> 5 µM (inactive)	> 5 µM (inactive)	> 5 µM (inactive)	> 5 µM (inactive)	> 5 µM (inactive)	> 5 µM (inactive)	> 5 µM (inactive)	> 5 µM (inactive)			
CCn1c(-c2ccc(C)cc2)cs/c1=N\C(P(=O)(O)O)P(=O)(O)O	> 100 µM (inactive)	> 100 µM (inactive)	> 100 µM (inactive)	> 100 µM (inactive)	> 100 µM (inactive)	> 100 µM (inactive)	> 100 µM (inactive)	> 100 µM (inactive)	> 100 µM (inactive)	> 100 µM (inactive)	> 100 µM (inactive)	> 100 µM (inactive)	> 100 µM (inactive)	> 100 µM (inactive)	> 100 µM (inactive)	> 100 µM (inactive)	> 100 µM (inactive)	> 100 µM (inactive)	> 100 µM (inactive)	
N=C(c1ccc2ccccc2c1)c1ccccc1Cc1ccccc1		39.6 µM (inactive)	> 100 µM (inactive)	37.8 µM (inactive)	44 µM (inactive)	24.8 µM (inactive)	> 100 µM (inactive)	62.4 µM (inactive)		33.5 µM (inactive)	45.5 µM (inactive)	52.6 µM (inactive)	22.7 µM (inactive)	55 µM (inactive)	51.6 µM (inactive)	29.8 µM (inactive)	84.7 µM (inactive)	25.2 µM (inactive)	43.3 µM (inactive)	18.2 µM (inactive)
COc1cc(C2C(C#N)=C(N)OC3=C2CCS(=O)(=O)c2ccc(C)cc23)cc(OC)c1OC (configuration not stated)	> 100 µM (inactive)	> 100 µM (inactive)	> 100 µM (inactive)	> 100 µM (inactive)	> 100 µM (inactive)	> 100 µM (inactive)	> 100 µM (inactive)	> 100 µM (inactive)	> 100 µM (inactive)		> 100 µM (inactive)	> 100 µM (inactive)	> 100 µM (inactive)	> 100 µM (inactive)	> 100 µM (inactive)	> 100 µM (inactive)	> 100 µM (inactive)	> 100 µM (inactive)	> 100 µM (inactive)	> 100 µM (inactive)
COc1c2nc(CCl)n(C)c(=O)c2c(OC)c2c(=O)n(C)c(CCl)nc12	1.76 µM (inactive)	1.87 µM (inactive)	1.55 µM (inactive)	1.1 µM (active)	2.67 µM (inactive)	1.49 µM (inactive)	1.41 µM (inactive)	1.85 µM (inactive)	1.34 µM (inactive)	0.48 µM (active)	1.19 µM (inactive)	1.81 µM (inactive)	2.11 µM (inactive)	1.6 µM (inactive)	1.29 µM (inactive)	3.4 µM (inactive)	0.544 µM (active)	1.22 µM (inactive)		
CSC1NC(c2ccc(Cl)cc2)=C(C#N)C(=O)N1C1OCC(OC(C)=O)C(OC(C)=O)C1OC(C)=O (configuration not stated)	> 100 µM (inactive)	> 100 µM (inactive)	> 100 µM (inactive)	> 100 µM (inactive)	> 100 µM (inactive)	> 100 µM (inactive)	> 100 µM (inactive)	> 100 µM (inactive)	> 100 µM (inactive)	> 100 µM (inactive)	> 100 µM (inactive)	> 100 µM (inactive)	> 100 µM (inactive)	> 100 µM (inactive)	> 100 µM (inactive)	> 100 µM (inactive)	> 100 µM (inactive)	> 100 µM (inactive)	> 100 µM (inactive)	
N#Cc1c(N)nc2c(C#N)c(N)cc3c2c1Oc1ccccc1-3	> 100 µM (inactive)	> 100 µM (inactive)	> 100 µM (inactive)	> 100 µM (inactive)	> 100 µM (inactive)	> 100 µM (inactive)	> 100 µM (inactive)	> 100 µM (inactive)		> 100 µM (inactive)	> 100 µM (inactive)	> 100 µM (inactive)	> 100 µM (inactive)	> 100 µM (inactive)	> 100 µM (inactive)	> 100 µM (inactive)	> 100 µM (inactive)	74 µM (inactive)	> 100 µM (inactive)	> 100 µM (inactive)
Nc1nc2cc(Cl)ccc2n1N	> 100 µM (inactive)	87.1 µM (inactive)	> 100 µM (inactive)	> 100 µM (inactive)	> 100 µM (inactive)	> 100 µM (inactive)	> 100 µM (inactive)	> 100 µM (inactive)	> 100 µM (inactive)	> 100 µM (inactive)	> 100 µM (inactive)	> 100 µM (inactive)	> 100 µM (inactive)	> 100 µM (inactive)	> 100 µM (inactive)	> 100 µM (inactive)	45.5 µM (inactive)	> 100 µM (inactive)	86.9 µM (inactive)	
Nc1ccc(C(=O)Nn2c(-c3ccccc3)nc3ccccc3c2=O)cc1	> 100 µM (inactive)	> 100 µM (inactive)	> 100 µM (inactive)	> 100 µM (inactive)	> 100 µM (inactive)	> 100 µM (inactive)	> 100 µM (inactive)	> 100 µM (inactive)	> 100 µM (inactive)	> 100 µM (inactive)	> 100 µM (inactive)	> 100 µM (inactive)	> 100 µM (inactive)		> 100 µM (inactive)	> 100 µM (inactive)	> 100 µM (inactive)	> 100 µM (inactive)	> 100 µM (inactive)	
Clc1ccc(C2=C(c3ccccc3)C(c3ccc(Cl)cc3)N3C(=N[C@H]4CCCC[C@@H]43)N2)cc1 (some centres not stated)	16.5 µM (inactive)		14.9 µM (inactive)	8.05 µM (inactive)	13.7 µM (inactive)	14.7 µM (inactive)	6.64 µM (inactive)	13.7 µM (inactive)		7.06 µM (inactive)	11.2 µM (inactive)	14.9 µM (inactive)	14.5 µM (inactive)	16.1 µM (inactive)	10.2 µM (inactive)	13.2 µM (inactive)	14.6 µM (inactive)	9.4 µM (inactive)	16.7 µM (inactive)	16.4 µM (inactive)
CCCCCCCCCCCCCCCCCCNC(=S)N/C=C1/C(=O)C=C(C)OC1=O		31.8 µM (inactive)	33 µM (inactive)	27.4 µM (inactive)	23.8 µM (inactive)	36.4 µM (inactive)	27.7 µM (inactive)	32.4 µM (inactive)		29.9 µM (inactive)	22.9 µM (inactive)	27.5 µM (inactive)	23.7 µM (inactive)	23.4 µM (inactive)	17 µM (inactive)	24.9 µM (inactive)	19.1 µM (inactive)	16.6 µM (inactive)	30.2 µM (inactive)	21.4 µM (inactive)
